# Patent publication US9902713B2, “Neuroprotective compounds and use thereof” (BOARD OF REGENTS OF THE UNIVERSITY OF TEXAS SYSTEM, priority 2013, dated 2018)
# Experiments:
# [1] = system: newborn hippocampal neurons; assay: In vivo neuroprotection assay: BrdU+ newborn hippocampal neurons; design: species or system mice; conditions: for # cell (E6)/mm^3 (number of BrdU+ cells): in vivo neuroprotection assay, Table 2
# Description: Results. Our most robust assay involves monitoring neuroprotection of newborn hippocampal neurons in mice because this assay gives a simultaneous readout of efficacy, acute toxicity and cell permeability. For this reason, all analogs of P7C3 were evaluated initially by infusing them directly into the left lateral ventricle of environmentally-deprived^ix live mice using a subcutaneously implanted osmotic minipump. Compounds were delivered intracerebroventricularly (ICV) over a 7 day period at a concentration of 10 μM (12 μL/d).^x Coincident with ICV administration of drug, mice were dosed daily with the thymidine analog bromodeoxyuridine (BrdU, IP, 50 mg/kg) to mark newly born hippocampal neural precursor cells. At the end of the 1 week dosing, animals were sacrificed and transcardially perfused. Brain slices were stained with antibodies to BrdU, and the number of surviving neural precursor cells was quantified by counting the number of BrdU+ cells in the hippocampal dentate gyrus. To avoid complications arising from the surgical implantation of the pump, we quantified neurogenesis in the hemisphere opposite to compound infusion. Finally, to obtain consistent data across many animals, the number of BrdU+ cells was normalized to the volume of the dentate gyrus.
# In Vivo Neuroprotection Assay. Test compounds were evaluated as described previously.^2 Compounds were infused intracerebroventricularly (i.c.v.) into the left lateral ventricle of four adult (12 week old) wild-type C57BL/J6 mice by means of surgically implanted Alzet osmotic minipumps that delivered solution into animals at a constant rate of 0.5 μl/hour for 7 days. Alternatively, compounds were administered intraperitoneally twice daily. Bromodeoxyuridine (BrdU) was injected intraperitoneally at 50 mg/kg/day for six days during pump infusion. Twenty-four hours after the final BrdU administration, mice were sacrificed by transcardial perfusion with 4% paraformaldehyde at pH 7.4, and their brains were processed for immunohistochemical detection of incorporated BrdU in the SGZ. Dissected brains were immersed in 4% paraformaldehyde overnight at 4° C., then cryoprotected in sucrose before being sectioned into 40 μm thick free-floating sections. Unmasking of BrdU antigen was achieved through incubating tissue sections for two hours in 50% formamide/2×SSC at 65° C., followed by a five minute wash in 2×SSC and subsequent incubation for thirty minutes in 2M HCl at 37° C. Sections were processed for immunohistochemical staining with mouse monoclonal anti-BrdU (1:100). The number of BrdU+ cells in the entire dentate gyrus SGZ in the contralateral hemisphere (opposite side of surgically implanted pump) was quantified by counting BrdU+ cells within the SGZ and dentate gyrus in every fifth section throughout the entire hippocampus and then normalizing for dentate gyrus volume.
# [2] = system: 70 kD polypeptide; assay: Photo-crosslinking of 70 kD polypeptide and competition; type: binding; conditions: FIG. 13
# From the text: Note that non-specific, crosslinked bands are not competed by the “A20” variant, but that crosslinking of the 70 kD band was competed.
# [3] = system: dopaminergic neurons within the substantia nigra; conditions: previously reported; cited from earlier work
# [4] = system: newborn hippocampal neurons; conditions: previously reported; cited from earlier work
# [5] = system: motor neurons in the spinal cord; conditions: previously reported; cited from earlier work
Structure (SMILES),"increase in the number of BrdU+ cells compared to vehicle ([1]; ICV, 1 week, FIG. 1)",# cell (E6)/mm^3 (number of BrdU+ cells) [1],also measured
"[N-]=[N+]=NCC(F)Cn1c2ccc(Br)cc2c2cc(Br)ccc21 (stereo not shown) [compound 9, 9-(3-azido-2-fluoropropyl)-3,6-dibromo-9H-carbazole]",,,"number of surviving newborn hippocampal neurons ([1]; ICV, 1 week, FIG. 1): inactive"
"NCC(O)Cn1c2ccc(Br)cc2c2cc(Br)ccc21 (stereo not shown) [compound 14, 1-amino-3-(3,6-dibromo-9H-carbazol-9-yl)propan-2-ol]",30%,,
C#CCOc1ccc(C(=O)c2cccc(NCC(F)Cn3c4ccc(Br)cc4c4cc(Br)ccc43)c2)cc1 (stereo not shown) [P7C3-S326],,25 (E6)/mm^3,photo-crosslinking products [2]: photo-crosslinking of 70 kD polypeptide
"NCC(F)Cn1c2ccc(Br)cc2c2cc(Br)ccc21 (stereo not shown) [compound 10, 3-(3,6-dibromo-9H-carbazol-9-yl)-2-fluoropropan-1-amine]",30%,,
O=C(CCCC[C@@H]1SC[C@@H]2NC(=O)N[C@@H]21)NCCOCCOCCOCCn1cc(COc2ccc(OCC(O)Cn3c4ccc(Br)cc4c4cc(Br)ccc43)cc2)nn1 (stereo partly shown) [P7C3-S318],,20.8 (E6)/mm^3,
C#CCOc1ccc(C(=O)c2ccc(NCC(O)Cn3c4ccc(Br)cc4c4cc(Br)ccc43)cc2)cc1 (stereo not shown) [P7C3-S325],,30.6 (E6)/mm^3,
"COc1cccc(NCC(O)Cn2c3ccc(Br)cc3c3cc(Br)ccc32)n1 (stereo not shown) [compound 15, 1-(3,6-dibromo-9H-carbazol-9-yl)-3-((6-methoxypyridin-2-yl)amino)propan-2-ol]",30%,,
"OC(CNc1ccccc1)Cn1c2ccc(Br)cc2c2cc(Br)ccc21 (stereo not shown) [P7C3, 1-(3,6-dibromo-9H-carbazol-9-yl)-3-(phenylamino)propan-2-ol]",,30 (E6)/mm^3,protection of substantia nigra neurons from MPTP (earlier report) [3]: protect neurons in the substantia nigra; activity in the in vivo hippocampal neuroprotection assay (previous studies) [4]: approximately doubled; motor neuron cell death in the spinal cord [5]: minimize motor neuron cell death
"OC(CNc1ccccn1)Cn1c2ccc(Br)cc2c2cc(Br)ccc21 (stereo not shown) [compound 1, 1-(3,6-dibromo-9H-carbazol-9-yl)-3-(pyridin-2-ylamino)propan-2-ol]",,,activity in the in vivo hippocampal neuroprotection assay (previous studies) [4]: maintaining activity
